The values below come from ChEMBL document CHEMBL1201862, “PubChem BioAssay data set” (2004).

Test [1] deals with T1, Delta-type opioid receptor (Homo sapiens, UniProt P41143). Briefly: HTS Image-Based Screen for Agonists of the DOR Receptor. [Related pubchem assays (depositor defined):AID1777, AID1786, AID2133]. It is filed as functional.
In test [2] the target is T2, Kappa-type opioid receptor (Homo sapiens, UniProt P41145). It is filed as functional.
Test [3] has as its system Streptococcus sp. 'group A'. In words: growth inhibition of control SK(-) GAS strain, dose response, counter-screen for streptokinase expression inhibitor project, luminescence, kanamycin, BacTiterGlo, confirmation (AID 1900). Format: functional, organism-based.
The target in test [4] is Photoreceptor-specific nuclear receptor (Homo sapiens, UniProt Q9Y5X4). Format: functional, cell-based.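 Further: CHO-S cells with Gal4-NCOR and VP16-NR2E3 two-hybrid luciferase reporter.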
Test [5] deals with T2, Kappa-type opioid receptor. It is filed as functional. This is another data set of the same source.
Test [6] is described as follows: cytotoxicity toward NIH3T3 fibroblasts, dose response, counter-screen, cell-based, ATP luminescence, mouse fibroblasts (AID 2010).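 Further: cells exposed to compound for about 90 hours before reading.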 Format: functional. (In general: The purpose of a counterscreen is to sort out artefacts and off-target activity.)
Test [7] has as its target T1, Delta-type opioid receptor. Briefly: HTS Image-Based Screen for Antagonists of the DOR Receptor. [Related pubchem assays (depositor defined):AID1777, AID1785, AID1786, AID2133]. Format: functional.
Another test deals with Streptococcus. Briefly: Group A Streptococcus viability loss, dose response, counter-screen for streptokinase expression inhibitor project, luminescence, BacTiterGlo (AID 1915).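 Further: potency for reduction of bacterial viability or growth.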 It is filed as functional, organism-based.
For test [8], the target named is G-protein coupled receptor 55 (Homo sapiens, UniProt Q9Y2T6). Briefly: GPR55 antagonists blocking LPI-driven arrestin recruitment, primary screen, imaging, U2OS, beta-arrestin-GFP, LPI agonist (AID 2013).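 Further: antagonist potency measured as reduced agonist-driven arrestin aggregation.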 It is filed as functional. Background: Arrestin recruitment assays detect the binding of arrestin to an activated receptor.
The target in test [9] is T3, Beta-galactosidase (Escherichia coli, UniProt Q8VNN2). In words: beta-galactosidase enzyme inhibitors and activators, dose response, artefact control for CCR6 antagonist project, biochemical, E. coli enzyme, set 3 (AID 504712). Format: functional.
The nature of test [10]: NIH-3T3 fibroblast cytotoxicity, dose response, cytotoxicity control, cell-based, fluorescence, Alamar Blue, secondary assay (AID 2327).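 Further: NIH-3T3 mouse fibroblasts cultured with fluconazole at 8 µg/mL.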 Format: functional.
The target in test [11] is T3, Beta-galactosidase. Format: functional.
Test [12] in a line: C. albicans growth with fluconazole, confirmation, fluorescence, retest (AID 2467). Format: functional, cell-based.
Test [13] can be described thus: inhibitors of intracellular T. cruzi replication, confirmation, NIH3T3 host cells, beta-gal luminescence (AID 2044).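 Further: intracellular parasites grown in NIH/3T3 mouse fibroblasts as host cells; luminescent beta-galactosidase reporter signal from transgenic T. cruzi replicating inside host cells; inhibitors lower the luminescence signal.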 Format: functional, cell-based.
The next test concerns Vero. Briefly: cells. Format: functional. Conditions: Chlorocebus sabaeus.
In a further test the target is Mu-type opioid receptor (Homo sapiens, UniProt P35372). In words: HTS Image-Based Screen for Agonists of the MOR Receptor. [Related pubchem assays (depositor defined):AID1777, AID1785, AID1786, AID2133]. Format: functional.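 Further: imaging of beta-arrestin GFP recruitment into spots after receptor activation.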
Test [14] can be described thus: insulin promoter down-regulators in MIN6 cells, imaging, high-content screening, mouse beta cells (AID 1628). It is filed as functional.
The nature of test [15]: HepG2 cell cytotoxicity, dose response, cytotoxicity control for Shn3 inhibitor project, CellTiter-Glo, cherry-picked (AID 624134). It is filed as functional, cell-based. On the technique in general: In ATP-based viability assays light output follows the ATP content of the culture.
Test [16] deals with Signal transducer and activator of transcription 3 (Homo sapiens, UniProt P40763). In words: STAT3 inhibitors, late-stage profile, late-stage follow-up, cell-based, STAT1 panel, qPCR, cytotoxicity, panel member STAT3 Inhibition (AID 2078).
Test [17] is described as follows: control 3'UTR Renilla luciferase suppression, dose response, counter-screen for Shn3 inhibitor project, cell-based, Clone20-Shn3RL, cherry-picked (AID 624133). It is filed as functional.
The subject of test [18] is HEK293. Briefly: NOD1 signaling inhibitors, primary screen, cell-based, luminescence, uHTS (AID 1578). It is filed as functional. The following applies: Homo sapiens.
Test [19] has as its system HEK293. In words: NOD2 signaling inhibitors in MDP-stimulated cells, cell-based, uHTS, luminescence (AID 2001). It is filed as functional. The following applies: Homo sapiens.
Test [20] can be described thus: cytotoxicity in MIN6 insulinoma cells, dose response, cytotoxicity control, cell-based, mouse insulinoma (AID 2122).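 Further: confirmatory high-throughput counterscreen run to flag cytotoxic compounds; mouse MIN-6 beta cells carrying an insulin promoter eGFP reporter.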 Format: functional.
Test [21] in a line: Shn3 3'UTR reporter inhibitors, dose response, cell-based, Clone20 osteoblasts, firefly luciferase, cherry-picked (AID 624132).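 Further: firefly luciferase luminescence from reporter carrying the Shn3 3'UTR in osteoblasts.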 Format: functional.
The test system of test [22] is HEK293. Briefly: cells. Format: functional, cell-based. Conditions: Homo sapiens.
Test [23] deals with ATP-dependent molecular chaperone HSP82 (Candida albicans (strain WO-1) (Yeast), UniProt C4YTQ8). Briefly: loss of DOC-induced GRE-beta-galactosidase reporter signal, dose response, Hsp90 inhibitor project, S. cerevisiae, luminescence (AID 2400).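 Further: beta-galactosidase luminescence from glucocorticoid response element reporter as proxy for Hsp90 function; inhibitor potency where signal loss means Hsp90 inhibition.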 Format: functional, cell-based.
The target in test [24] is T4, Serine/threonine-protein phosphatase (Candida dubliniensis (strain CD36 / CBS 7987 / NCPF 3949 / NRRLY-17841) (Yeast), UniProt B9W6M3).
T4 sequence (B9W6M3 whole entry): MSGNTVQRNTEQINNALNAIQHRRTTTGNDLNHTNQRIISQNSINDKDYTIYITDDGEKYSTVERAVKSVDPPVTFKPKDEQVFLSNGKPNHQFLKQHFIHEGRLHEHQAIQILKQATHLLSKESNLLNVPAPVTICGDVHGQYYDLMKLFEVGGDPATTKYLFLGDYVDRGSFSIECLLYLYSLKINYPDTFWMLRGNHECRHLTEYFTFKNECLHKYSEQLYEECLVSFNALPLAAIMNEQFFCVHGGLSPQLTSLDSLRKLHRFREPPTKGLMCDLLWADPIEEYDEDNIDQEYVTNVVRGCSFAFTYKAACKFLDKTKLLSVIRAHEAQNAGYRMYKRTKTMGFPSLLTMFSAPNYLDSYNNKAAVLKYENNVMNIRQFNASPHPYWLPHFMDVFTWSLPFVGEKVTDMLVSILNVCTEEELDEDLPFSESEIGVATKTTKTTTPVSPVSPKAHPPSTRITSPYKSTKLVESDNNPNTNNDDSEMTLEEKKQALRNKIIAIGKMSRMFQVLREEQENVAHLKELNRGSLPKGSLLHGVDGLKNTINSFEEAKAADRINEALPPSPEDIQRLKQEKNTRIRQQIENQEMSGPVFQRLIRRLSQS
In words: calcineurin pathway inhibitors in yeast reporter, dose response, S. cerevisiae, CDRE-lacZ, luminescence, secondary (AID 2388).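 Further: yeast reporter cells carrying a calcineurin-responsive lacZ construct stimulated with calcium chloride; luminescent beta-galactosidase reporter signal in whole cells rather than isolated phosphatase activity; potency for inhibition where a drop in reporter signal means calcineurin blockade.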 It is filed as functional, cell-based.

For test [25], the target named is Signal transducer and activator of transcription 1-alpha/beta (Homo sapiens, UniProt P42224). Briefly: STAT3 inhibitors, late-stage profile, late-stage follow-up, cell-based, STAT1 panel, qPCR, cytotoxicity, panel member STAT1 Inhibition (AID 2078).
The test system of test [26] is HEK293. Briefly: cells. It is filed as functional, cell-based. The following applies: Homo sapiens. The source holds these as a separate data set.
Test [27] addresses T5, Intestinal-type alkaline phosphatase (Homo sapiens, UniProt P09923). In words: human IAP activators, dose response, biochemical, luminescent, uHTS hits, set 2 (AID 488817).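 Further: potency of activators that raise enzyme activity.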 Format: functional.
Test [28] has as its target T6, Alkaline phosphatase, tissue-nonspecific isozyme (Homo sapiens, UniProt P05186).
T6 sequence (P05186 whole entry): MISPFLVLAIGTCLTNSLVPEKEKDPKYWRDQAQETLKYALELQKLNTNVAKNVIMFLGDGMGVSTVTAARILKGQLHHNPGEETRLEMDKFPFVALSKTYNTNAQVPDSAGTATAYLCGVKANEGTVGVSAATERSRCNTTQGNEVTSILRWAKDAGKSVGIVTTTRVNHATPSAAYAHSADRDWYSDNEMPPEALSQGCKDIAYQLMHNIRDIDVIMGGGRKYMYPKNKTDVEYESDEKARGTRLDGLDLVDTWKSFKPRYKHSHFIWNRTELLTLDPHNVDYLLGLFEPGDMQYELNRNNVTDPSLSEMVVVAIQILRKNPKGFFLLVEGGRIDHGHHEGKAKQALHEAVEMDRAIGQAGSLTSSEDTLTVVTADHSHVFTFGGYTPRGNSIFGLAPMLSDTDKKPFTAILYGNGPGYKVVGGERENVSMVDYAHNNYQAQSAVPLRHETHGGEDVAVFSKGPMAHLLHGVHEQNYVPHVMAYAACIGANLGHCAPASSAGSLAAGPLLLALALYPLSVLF
In words: TNAP enzyme activators, dose response, selectivity assay for human IAP activator project, biochemical, TNAP isozyme, human IAP uHTS hits (AID 488886).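 Further: potency of compounds raising TNAP activity as a selectivity check on IAP activators.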 Format: functional.

Test [29] concerns the target T5, Intestinal-type alkaline phosphatase. In words: human intestinal alkaline phosphatase activators, dose response, biochemical, luminescence, uHTS hits (AID 463120). Format: functional.
Test [30] concerns the target Intestinal-type alkaline phosphatase (Mus musculus, UniProt P24822). Briefly: PubChem AID 488874. It is filed as functional.
Test [31] addresses T7, Heat shock factor protein 1 (Mus musculus, UniProt P38532).
T7 sequence (P38532 whole entry): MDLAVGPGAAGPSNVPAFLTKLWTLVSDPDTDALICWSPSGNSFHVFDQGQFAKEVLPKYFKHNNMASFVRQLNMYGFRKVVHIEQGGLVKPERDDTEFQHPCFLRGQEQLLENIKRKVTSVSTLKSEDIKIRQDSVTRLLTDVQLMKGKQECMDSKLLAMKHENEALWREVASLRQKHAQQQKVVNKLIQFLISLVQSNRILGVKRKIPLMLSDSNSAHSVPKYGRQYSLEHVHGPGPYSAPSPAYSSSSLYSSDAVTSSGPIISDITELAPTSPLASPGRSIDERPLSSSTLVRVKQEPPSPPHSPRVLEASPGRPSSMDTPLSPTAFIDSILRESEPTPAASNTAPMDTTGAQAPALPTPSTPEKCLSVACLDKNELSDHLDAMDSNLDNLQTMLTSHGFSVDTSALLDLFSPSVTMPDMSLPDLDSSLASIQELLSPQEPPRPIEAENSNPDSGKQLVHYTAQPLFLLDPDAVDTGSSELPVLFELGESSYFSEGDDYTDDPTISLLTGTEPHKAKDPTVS
In words: inhibition of MG132-induced HSE-luciferase signal, confirmation, cell-based, NIH3T3, luminescence, dose retest (AID 2382).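 Further: NIH3T3 fibroblasts with HSF1-driven luciferase reporter stressed by proteasome inhibitor MG132; luminescence from HSF1-driven luciferase expression after 8 hours of MG132 stress.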 Format: functional.

Test [32] concerns HEK293. In words: cells. The following applies: Homo sapiens.
In the next test the target is Tumor necrosis factor (Homo sapiens, UniProt P01375). In words: TNFa-triggered NF-kB activation inhibitors, SAR follow-up, cell-based, revised (AID 2337). Format: functional.

Calls of active or inactive are those of the source. Bounds are passed on as bounds.

T3 sequence (Q8VNN2 whole entry): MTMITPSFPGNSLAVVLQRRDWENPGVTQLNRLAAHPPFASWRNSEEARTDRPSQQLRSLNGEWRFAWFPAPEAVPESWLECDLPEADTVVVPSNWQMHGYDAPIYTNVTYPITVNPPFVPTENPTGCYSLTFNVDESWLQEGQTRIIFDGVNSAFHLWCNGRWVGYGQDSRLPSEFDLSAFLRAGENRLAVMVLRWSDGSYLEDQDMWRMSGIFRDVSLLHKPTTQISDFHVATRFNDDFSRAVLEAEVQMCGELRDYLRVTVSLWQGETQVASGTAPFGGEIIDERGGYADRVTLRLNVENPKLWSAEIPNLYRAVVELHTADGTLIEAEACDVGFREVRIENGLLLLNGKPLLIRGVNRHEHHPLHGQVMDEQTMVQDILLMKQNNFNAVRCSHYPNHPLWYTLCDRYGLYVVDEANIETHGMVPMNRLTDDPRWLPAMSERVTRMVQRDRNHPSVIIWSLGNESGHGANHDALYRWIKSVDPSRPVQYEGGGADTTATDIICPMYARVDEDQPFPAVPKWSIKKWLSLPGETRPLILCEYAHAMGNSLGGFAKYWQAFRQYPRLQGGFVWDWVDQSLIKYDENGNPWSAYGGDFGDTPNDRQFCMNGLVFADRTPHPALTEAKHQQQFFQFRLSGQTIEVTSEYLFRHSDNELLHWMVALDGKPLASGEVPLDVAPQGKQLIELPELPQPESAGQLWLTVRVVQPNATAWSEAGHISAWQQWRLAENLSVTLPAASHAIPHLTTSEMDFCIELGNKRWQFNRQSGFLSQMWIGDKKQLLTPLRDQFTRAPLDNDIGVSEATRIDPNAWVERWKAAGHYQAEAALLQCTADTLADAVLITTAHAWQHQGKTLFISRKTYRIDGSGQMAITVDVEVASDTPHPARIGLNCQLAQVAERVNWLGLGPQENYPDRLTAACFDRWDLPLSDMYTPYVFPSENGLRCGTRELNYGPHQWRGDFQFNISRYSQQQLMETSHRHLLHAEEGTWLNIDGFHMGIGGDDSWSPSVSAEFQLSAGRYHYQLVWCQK
T2 sequence (P41145 whole entry): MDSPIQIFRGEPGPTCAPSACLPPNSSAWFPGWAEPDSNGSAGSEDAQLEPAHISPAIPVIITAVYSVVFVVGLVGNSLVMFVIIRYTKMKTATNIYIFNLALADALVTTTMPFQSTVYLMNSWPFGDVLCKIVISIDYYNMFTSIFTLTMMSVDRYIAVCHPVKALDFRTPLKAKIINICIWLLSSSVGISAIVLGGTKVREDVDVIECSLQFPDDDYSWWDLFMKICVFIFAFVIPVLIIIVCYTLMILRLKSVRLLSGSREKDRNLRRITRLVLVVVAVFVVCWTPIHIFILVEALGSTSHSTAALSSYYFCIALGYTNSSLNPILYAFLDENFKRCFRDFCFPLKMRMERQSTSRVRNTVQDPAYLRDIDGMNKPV
T1 sequence (P41143 whole entry): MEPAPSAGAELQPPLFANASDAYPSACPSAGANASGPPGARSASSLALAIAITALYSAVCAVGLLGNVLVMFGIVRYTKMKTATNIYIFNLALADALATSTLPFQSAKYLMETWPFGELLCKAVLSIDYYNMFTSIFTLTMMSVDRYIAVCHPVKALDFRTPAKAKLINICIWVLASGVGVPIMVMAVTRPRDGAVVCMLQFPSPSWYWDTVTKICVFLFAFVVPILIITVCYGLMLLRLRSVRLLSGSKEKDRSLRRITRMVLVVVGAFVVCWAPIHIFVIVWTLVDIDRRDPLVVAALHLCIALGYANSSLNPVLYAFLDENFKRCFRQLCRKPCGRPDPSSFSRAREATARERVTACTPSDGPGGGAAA
T5 sequence (P09923 whole entry): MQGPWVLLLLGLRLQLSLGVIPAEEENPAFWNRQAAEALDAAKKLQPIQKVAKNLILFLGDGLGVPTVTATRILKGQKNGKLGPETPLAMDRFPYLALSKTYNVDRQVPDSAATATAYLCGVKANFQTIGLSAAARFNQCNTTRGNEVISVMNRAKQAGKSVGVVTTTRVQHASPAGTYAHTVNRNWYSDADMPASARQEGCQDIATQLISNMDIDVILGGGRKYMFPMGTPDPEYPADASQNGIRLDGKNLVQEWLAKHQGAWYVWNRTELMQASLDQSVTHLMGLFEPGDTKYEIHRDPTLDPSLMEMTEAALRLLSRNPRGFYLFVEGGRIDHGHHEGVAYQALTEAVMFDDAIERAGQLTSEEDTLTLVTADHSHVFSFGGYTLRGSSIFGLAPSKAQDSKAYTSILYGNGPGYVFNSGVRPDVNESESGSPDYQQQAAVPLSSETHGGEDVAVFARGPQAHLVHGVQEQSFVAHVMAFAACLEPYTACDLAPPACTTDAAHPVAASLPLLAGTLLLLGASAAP
Intestinal-type alkaline phosphatase (Mus musculus, UniProt P24822), sequence (P24822 whole entry): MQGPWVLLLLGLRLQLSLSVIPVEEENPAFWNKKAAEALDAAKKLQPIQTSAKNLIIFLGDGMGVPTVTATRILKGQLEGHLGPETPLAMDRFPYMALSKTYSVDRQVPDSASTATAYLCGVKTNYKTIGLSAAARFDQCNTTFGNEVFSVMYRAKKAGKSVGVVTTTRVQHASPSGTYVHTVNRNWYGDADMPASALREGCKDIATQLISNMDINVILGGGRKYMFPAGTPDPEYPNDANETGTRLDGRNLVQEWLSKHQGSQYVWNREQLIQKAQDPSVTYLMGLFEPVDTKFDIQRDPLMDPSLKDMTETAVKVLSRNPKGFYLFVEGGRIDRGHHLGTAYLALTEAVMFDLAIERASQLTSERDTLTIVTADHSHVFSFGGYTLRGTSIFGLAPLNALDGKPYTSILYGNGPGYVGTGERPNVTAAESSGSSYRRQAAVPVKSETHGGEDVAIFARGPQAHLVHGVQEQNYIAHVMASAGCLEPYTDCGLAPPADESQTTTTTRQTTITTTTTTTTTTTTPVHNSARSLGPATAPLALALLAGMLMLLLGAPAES
Mu-type opioid receptor, sequence (P35372 whole entry): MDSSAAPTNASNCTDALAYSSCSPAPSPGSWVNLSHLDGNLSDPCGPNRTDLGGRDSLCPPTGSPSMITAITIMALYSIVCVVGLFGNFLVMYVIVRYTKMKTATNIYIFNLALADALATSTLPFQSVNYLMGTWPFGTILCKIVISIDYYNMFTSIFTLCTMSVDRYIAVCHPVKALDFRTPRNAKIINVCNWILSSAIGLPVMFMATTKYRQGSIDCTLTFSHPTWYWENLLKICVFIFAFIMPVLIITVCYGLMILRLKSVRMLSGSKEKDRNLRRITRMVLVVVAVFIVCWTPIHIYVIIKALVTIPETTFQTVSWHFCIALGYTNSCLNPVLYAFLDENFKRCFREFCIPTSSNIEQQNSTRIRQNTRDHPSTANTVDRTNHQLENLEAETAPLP
ATP-dependent molecular chaperone HSP82, sequence (C4YTQ8 whole entry): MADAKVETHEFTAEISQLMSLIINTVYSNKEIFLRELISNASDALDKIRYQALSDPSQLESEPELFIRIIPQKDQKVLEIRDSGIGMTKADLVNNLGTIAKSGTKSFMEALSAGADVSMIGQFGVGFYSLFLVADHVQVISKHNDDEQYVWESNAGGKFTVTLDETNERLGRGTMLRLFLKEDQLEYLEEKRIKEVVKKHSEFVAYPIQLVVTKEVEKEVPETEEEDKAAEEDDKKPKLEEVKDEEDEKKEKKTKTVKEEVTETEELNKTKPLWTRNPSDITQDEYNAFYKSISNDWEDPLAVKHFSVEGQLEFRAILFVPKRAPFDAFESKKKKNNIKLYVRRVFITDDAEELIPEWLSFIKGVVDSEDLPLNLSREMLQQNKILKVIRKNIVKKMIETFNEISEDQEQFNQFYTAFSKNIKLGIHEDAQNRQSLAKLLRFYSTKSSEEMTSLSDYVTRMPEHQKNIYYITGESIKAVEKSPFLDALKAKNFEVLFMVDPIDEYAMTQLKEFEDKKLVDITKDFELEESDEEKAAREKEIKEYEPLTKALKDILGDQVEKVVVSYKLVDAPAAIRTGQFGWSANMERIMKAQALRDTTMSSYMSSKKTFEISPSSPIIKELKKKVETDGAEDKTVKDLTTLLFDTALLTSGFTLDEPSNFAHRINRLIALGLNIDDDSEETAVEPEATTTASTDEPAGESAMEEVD
Signal transducer and activator of transcription 1-alpha/beta, sequence (P42224 whole entry): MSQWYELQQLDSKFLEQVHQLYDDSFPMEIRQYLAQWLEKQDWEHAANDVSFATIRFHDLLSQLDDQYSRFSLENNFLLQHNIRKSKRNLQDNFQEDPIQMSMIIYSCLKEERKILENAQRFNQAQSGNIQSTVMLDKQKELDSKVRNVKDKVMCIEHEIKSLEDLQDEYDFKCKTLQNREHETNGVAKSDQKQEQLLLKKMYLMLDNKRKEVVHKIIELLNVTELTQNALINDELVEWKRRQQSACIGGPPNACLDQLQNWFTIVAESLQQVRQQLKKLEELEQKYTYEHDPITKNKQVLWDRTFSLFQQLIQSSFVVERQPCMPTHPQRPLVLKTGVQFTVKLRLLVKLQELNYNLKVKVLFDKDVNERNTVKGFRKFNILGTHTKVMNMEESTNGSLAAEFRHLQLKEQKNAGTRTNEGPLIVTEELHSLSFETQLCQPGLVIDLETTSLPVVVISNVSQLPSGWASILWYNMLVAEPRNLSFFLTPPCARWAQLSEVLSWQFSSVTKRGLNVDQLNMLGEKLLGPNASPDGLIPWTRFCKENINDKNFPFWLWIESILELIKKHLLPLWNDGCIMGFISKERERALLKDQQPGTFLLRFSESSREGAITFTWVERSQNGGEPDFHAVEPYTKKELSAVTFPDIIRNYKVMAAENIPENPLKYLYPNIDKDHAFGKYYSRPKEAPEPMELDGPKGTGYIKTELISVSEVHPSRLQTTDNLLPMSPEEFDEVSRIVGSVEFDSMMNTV
Tumor necrosis factor, sequence (P01375 whole entry): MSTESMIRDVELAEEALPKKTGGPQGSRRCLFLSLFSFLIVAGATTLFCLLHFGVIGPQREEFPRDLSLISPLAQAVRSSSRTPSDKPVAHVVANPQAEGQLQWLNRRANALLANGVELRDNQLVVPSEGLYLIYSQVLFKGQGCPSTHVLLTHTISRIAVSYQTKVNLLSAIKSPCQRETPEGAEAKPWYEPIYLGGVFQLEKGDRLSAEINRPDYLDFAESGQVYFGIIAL

The EC50 is the concentration that produces a half-maximal response. The term IC50 denotes the midpoint of a concentration-inhibition curve. As usually defined, the CC50 is the concentration that lowers cell viability or growth by half. With `Cc1cccc(Cc2cnc(N3C(=N)SC(C)C3=O)s2)c1` (stereo not drawn), the EC50 in [1] was > 32 µM (inactive); in [3] it was 0.179 µM (active); in [6], > 60 µM (not active); in the test with Streptococcus, 7.82 µM (active); in [10], > 160 µM (inconclusive); on Beta-galactosidase [11], > 31.5 µM (inactive). Moreover, the results for the EC50 (in test [12]; in test [13]; at Mu-type opioid receptor) were 1.91 µM (active), 2.41 µM (active) and > 32 µM (inactive), respectively. The IC50 was 5.68 µM (active) in test [2]; 1.87 µM (active) in [4]; above 32 µM in [5]; > 32 µM (inactive) in test [7]; 0.847 µM (active) in [8]; > 66.6 µM (inactive) at Beta-galactosidase [9]. Besides, the CC50 with Vero is > 25 µM (active).
One may read the AC50 as the concentration giving half of the maximal activity seen. Turning to `c1ccc(CC2CCN(c3ncnc4sccc34)CC2)cc1`, the IC50 in [14] is 0.756 µM (active); in test [16], 1.85 µM (active); in the test on HEK293 [19], > 20 µM (inactive); in [20] it was 0.505 µM (active); in the test with HEK293 [22] it was > 20 µM (inactive); in test [25], > 55.7 µM (inactive). In addition, the IC50 with HEK293 [26] was > 20 µM (inactive). For the same molecule, the AC50 in test [15] was 1.84 µM (active); in test [17], 5.88 µM (active); in test [21], 0.362 µM (active). Further, the EC50 in the test on HEK293 [18] is > 20 µM (inactive); in test [10] it was > 160 µM (inconclusive); in test [12], 0.574 µM (active); in [23], 19.5 µM (active); in test [24], > 180 µM (inactive).
Turning to `CCN(CC)C(CNC(=O)c1cc(=O)[nH]c2ccccc12)c1ccccc1Cl` (stereo not drawn), the values for the EC50 (in test [1]; at Beta-galactosidase [11]; at Mu-type opioid receptor) were > 32 µM (inactive), > 31.5 µM (inactive) and > 32 µM (inactive), respectively. The IC50 in [2] is 14.9 µM (active); in test [5] it was 14.6 µM; in test [7], > 32 µM (inactive).
In the case of `C[C@@H](NC(=O)c1[nH]cnc1C(=O)Nc1ccon1)c1ccccc1`, the results for the EC50 in test [27], in [28] and in test [29] were 16.4 µM (active), 25.9 µM (active) and 12 µM (active), respectively. In addition, the IC50 in [30] was 39.3 µM (active).
In the case of `CCn1c(C)nc2cc(C(=O)NNC(=S)Nc3ccccc3)ccc21`, the 50% effective concentration (EC50) in test [31] was 0.192 µM (active); in test [27] it was 15.6 µM (active); in [28] it was 15.4 µM (active); in test [29] it was 10.6 µM (active). Besides, in [30], the IC50 was 50.3 µM (active).
On to `O=C(Nc1ccc(F)cc1)c1ccc(CN2CCc3ccccc32)cc1`, for which the IC50 in the test with HEK293 [32] and on Tumor necrosis factor was > 20 µM (inactive) in each case.
